Data published in ChEMBL document CHEMBL1201862, “PubChem BioAssay data set” (2004).
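Cells were grown in 96-well plates and exposed to each compound for 48 hours at five concentrations; endpoints were interpolated linearly between bracketing concentrations, or set to the highest concentration if not reached. The concentration for 50% growth inhibition is given as GI50.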 The source made the active and inactive calls. Cut-off read from the data, not from the text of the source: active = GI50 up to about 1.1 µM and inactive = higher.

Columns and labels:
Experiment in all cases: NCI tumour cell line growth inhibition, 48 h
[1] = system: 786-0
[2] = system: A549
[3] = system: ACHN
[4] = system: BT-549
[5] = system: CAKI-1
[6] = system: CCRF-CEM
[7] = system: COLO 205
[8] = system: DU-145
[9] = system: EKVX
[10] = system: HCC 2998
[11] = system: HCT-116
[12] = system: HCT-15
[13] = system: HL-60
[14] = system: HOP-62
[15] = system: HOP-92
[16] = system: HT-29
[17] = system: Hs-578T
[18] = system: IGROV-1
[19] = system: K562
[20] = system: KM12
[21] = system: LOX IMVI
[22] = system: M14
[23] = system: MCF7
[24] = system: MDA-MB-231
[25] = system: MDA-MB-435
[26] = system: MOLT-4
[27] = system: Malme-3M
[28] = system: NCI-H226
[29] = system: NCI-H23
[30] = system: NCI-H460
[31] = system: NCI-H522
[32] = system: NCI/ADR-RES
[33] = system: OVCAR-3
[34] = system: OVCAR-4
[35] = system: OVCAR-5
[36] = system: OVCAR-8
[37] = system: PC-3
[38] = system: RPMI-8226
[39] = system: SF-268
[40] = system: SF-295
[41] = system: SF-539
[42] = system: SK-MEL-28
[43] = system: SK-MEL-2
[44] = system: SK-OV-3
[45] = system: SN12C
[46] = system: SNB-19
[47] = system: SNB-75
[48] = system: SR
[49] = system: SW-620
[50] = system: TK-10
[51] = system: U-251
[52] = system: UACC-257
[53] = system: UACC-62
[54] = system: UO-31
[55] = system: A498
[56] = system: MDA-N
[57] = system: RXF 393
[58] = system: SK-MEL-5
[59] = system: T47D

**Q.** For `Cc1ccc2nc(CN3CCCCC3)cc(=O)n2c1`, which GI50 [1] is on record?
**A.** Its GI50 is > 100 µM (inactive).

**Q.** And the GI50 [2]?
**A.** The GI50 was > 100 µM (inactive).

**Q.** What about the GI50 [3] of the same compound?
**A.** Its GI50 is > 100 µM (inactive).

**Q.** What about the GI50 [4] of the same compound?
**A.** The GI50 was > 100 µM (inactive).

**Q.** What about the GI50 [5] of the same compound?
**A.** The GI50 was > 100 µM (inactive).

**Q.** What about the GI50 [6] of the same compound?
**A.** The GI50 was > 100 µM (inactive).

**Q.** And the GI50 [7]?
**A.** The GI50 was > 100 µM (inactive).

**Q.** And the GI50 [8]?
**A.** The GI50 was > 100 µM (inactive).

**Q.** What about the GI50 [9] of the same compound?
**A.** Its GI50 is > 100 µM (inactive).

**Q.** And the GI50 [10]?
**A.** Its GI50 is > 100 µM (inactive).

**Q.** What about the GI50 [11] of the same compound?
**A.** The GI50 was > 100 µM (inactive).

**Q.** And the GI50 [12]?
**A.** Its GI50 is > 100 µM.

**Q.** What about the GI50 [13] of the same compound?
**A.** Its GI50 is > 100 µM (inactive).

**Q.** What about the GI50 [14] of the same compound?
**A.** The GI50 was > 100 µM (inactive).

**Q.** What about the GI50 [15] of the same compound?
**A.** Its GI50 is > 100 µM (inactive).

**Q.** And the GI50 [16]?
**A.** The GI50 was > 100 µM (inactive).

**Q.** And the GI50 [17]?
**A.** Its GI50 is > 100 µM (inactive).

**Q.** What about the GI50 [18] of the same compound?
**A.** Its GI50 is > 100 µM (inactive).

**Q.** And the GI50 [19]?
**A.** The GI50 was > 100 µM (inactive).

**Q.** And the GI50 [20]?
**A.** The GI50 was > 100 µM (inactive).

**Q.** And the GI50 [21]?
**A.** The GI50 was > 100 µM (inactive).

**Q.** What about the GI50 [22] of the same compound?
**A.** The GI50 was > 100 µM (inactive).

**Q.** What about the GI50 [23] of the same compound?
**A.** The GI50 was > 100 µM (inactive).

**Q.** What about the GI50 [24] of the same compound?
**A.** The GI50 was > 100 µM (inactive).

**Q.** What about the GI50 [25] of the same compound?
**A.** Its GI50 is > 100 µM (inactive).

**Q.** What about the GI50 [26] of the same compound?
**A.** Its GI50 is > 100 µM (inactive).

**Q.** And the GI50 [27]?
**A.** The GI50 was > 100 µM (inactive).

**Q.** What about the GI50 [28] of the same compound?
**A.** Its GI50 is > 100 µM (inactive).

**Q.** And the GI50 [29]?
**A.** Its GI50 is > 100 µM (inactive).

**Q.** And the GI50 [30]?
**A.** Its GI50 is > 100 µM (inactive).

**Q.** What about the GI50 [31] of the same compound?
**A.** Its GI50 is > 100 µM (inactive).

**Q.** What about the GI50 [32] of the same compound?
**A.** Its GI50 is > 100 µM (inactive).

**Q.** What about the GI50 [33] of the same compound?
**A.** Its GI50 is > 100 µM (inactive).

**Q.** What about the GI50 [34] of the same compound?
**A.** The GI50 was > 100 µM (inactive).

**Q.** And the GI50 [35]?
**A.** The GI50 was > 100 µM (inactive).

**Q.** What about the GI50 [36] of the same compound?
**A.** Its GI50 is > 100 µM (inactive).

**Q.** And the GI50 [37]?
**A.** The GI50 was > 100 µM (inactive).

**Q.** What about the GI50 [38] of the same compound?
**A.** Its GI50 is > 100 µM (inactive).

**Q.** What about the GI50 [39] of the same compound?
**A.** The GI50 was > 100 µM (inactive).

**Q.** And the GI50 [40]?
**A.** The GI50 was > 100 µM (inactive).

**Q.** What about the GI50 [41] of the same compound?
**A.** Its GI50 is > 100 µM (inactive).

**Q.** And the GI50 [42]?
**A.** The GI50 was > 100 µM (inactive).

**Q.** And the GI50 [43]?
**A.** The GI50 was > 100 µM (inactive).

**Q.** What about the GI50 [44] of the same compound?
**A.** Its GI50 is > 100 µM (inactive).

**Q.** What about the GI50 [45] of the same compound?
**A.** The GI50 was > 100 µM (inactive).

**Q.** What about the GI50 [46] of the same compound?
**A.** The GI50 was > 100 µM (inactive).

**Q.** And the GI50 [47]?
**A.** The GI50 was > 100 µM (inactive).

**Q.** And the GI50 [48]?
**A.** The GI50 was > 100 µM (inactive).

**Q.** What about the GI50 [49] of the same compound?
**A.** The GI50 was > 100 µM (inactive).

**Q.** What about the GI50 [50] of the same compound?
**A.** Its GI50 is > 100 µM (inactive).

**Q.** And the GI50 [51]?
**A.** The GI50 was > 100 µM (inactive).

**Q.** And the GI50 [52]?
**A.** The GI50 was > 100 µM (inactive).

**Q.** And the GI50 [53]?
**A.** Its GI50 is > 100 µM (inactive).

**Q.** And the GI50 [54]?
**A.** Its GI50 is > 100 µM (inactive).

**Q.** What does the source list for `CNC(=O)C1CCC(=O)N1CN(C(C)=O)c1ccccc1` (stereo not given)?
**A.** GI50 [1]: > 100 µM (inactive); GI50 [55]: > 100 µM (inactive); GI50 [2]: > 100 µM (inactive); GI50 [3]: > 100 µM (inactive); GI50 [5]: > 100 µM (inactive); GI50 [6]: 0.0471 µM (active); GI50 [7]: > 100 µM (inactive); GI50 [8]: > 100 µM (inactive); GI50 [9]: > 100 µM (inactive); GI50 [11]: > 100 µM (inactive); GI50 [12]: > 100 µM; GI50 [14]: > 100 µM (inactive); GI50 [15]: > 100 µM (inactive); GI50 [16]: > 100 µM (inactive); GI50 [17]: > 100 µM (inactive); GI50 [18]: > 100 µM (inactive); GI50 [19]: > 100 µM (inactive); GI50 [20]: > 100 µM (inactive); GI50 [21]: > 100 µM (inactive); GI50 [22]: > 100 µM (inactive); GI50 [23]: > 100 µM (inactive); GI50 [24]: > 100 µM (inactive); GI50 [25]: > 100 µM (inactive); GI50 [56]: > 100 µM (inactive); GI50 [26]: > 100 µM (inactive); GI50 [27]: > 100 µM (inactive); GI50 [28]: > 100 µM (inactive); GI50 [29]: > 100 µM (inactive); GI50 [30]: > 100 µM (inactive); GI50 [31]: > 100 µM (inactive); GI50 [32]: > 100 µM (inactive); GI50 [33]: > 100 µM (inactive); GI50 [34]: > 100 µM (inactive); GI50 [35]: > 100 µM (inactive); GI50 [36]: > 100 µM (inactive); GI50 [37]: > 100 µM (inactive); GI50 [38]: > 100 µM (inactive); GI50 [57]: > 100 µM (inactive); GI50 [39]: > 100 µM (inactive); GI50 [40]: > 100 µM (inactive); GI50 [41]: > 100 µM (inactive); GI50 [42]: > 100 µM (inactive); GI50 [43]: > 100 µM (inactive); GI50 [58]: > 100 µM (inactive); GI50 [44]: > 100 µM (inactive); GI50 [45]: > 100 µM (inactive); GI50 [46]: > 100 µM (inactive); GI50 [47]: > 100 µM (inactive); GI50 [48]: 13.6 µM (inactive); GI50 [49]: > 100 µM (inactive); GI50 [59]: > 100 µM (inactive); GI50 [50]: > 100 µM (inactive); GI50 [51]: > 100 µM (inactive); GI50 [52]: > 100 µM (inactive); GI50 [53]: > 100 µM (inactive); GI50 [54]: > 100 µM (inactive)
